The target in one assay is Carbonic anhydrase 12 (Homo sapiens, UniProt O43570).
The next assay deals with Carbonic anhydrase 9 (Homo sapiens, UniProt Q16790). In words: Inhibition of human carbonic anhydrase 9 by stopped flow CO2 assay.
Another assay addresses Carbonic anhydrase 2 (Homo sapiens, UniProt P00918). In words: Inhibition of human carbonic anhydrase 2 by stopped flow CO2 assay.
The target of the next assay is Carbonic anhydrase 1 (Homo sapiens, UniProt P00915). In words: Inhibition of human carbonic anhydrase 1 by stopped flow CO2 assay.
Sequence of Carbonic anhydrase 1 (P00915 whole entry): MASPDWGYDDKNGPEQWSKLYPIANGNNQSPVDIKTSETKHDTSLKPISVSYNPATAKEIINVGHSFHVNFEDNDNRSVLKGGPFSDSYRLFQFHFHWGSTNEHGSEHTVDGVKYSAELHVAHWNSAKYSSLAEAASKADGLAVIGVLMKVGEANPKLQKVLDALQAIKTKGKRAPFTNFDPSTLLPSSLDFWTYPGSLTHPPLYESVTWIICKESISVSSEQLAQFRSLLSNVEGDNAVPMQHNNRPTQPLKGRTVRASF

This passage reports Ki results from ChEMBL document CHEMBL5126575, “Synthesis of a new series of quinoline/pyridine indole-3-sulfonamide hybrids as selective carbonic anhydrase IX inhibitors” (Bioorg Med Chem Lett, 2022).

Each structure is given as a SMILES string. A value given as a limit tells only on which side of the number the result lay.

Sequence of Carbonic anhydrase 12 (O43570 whole entry): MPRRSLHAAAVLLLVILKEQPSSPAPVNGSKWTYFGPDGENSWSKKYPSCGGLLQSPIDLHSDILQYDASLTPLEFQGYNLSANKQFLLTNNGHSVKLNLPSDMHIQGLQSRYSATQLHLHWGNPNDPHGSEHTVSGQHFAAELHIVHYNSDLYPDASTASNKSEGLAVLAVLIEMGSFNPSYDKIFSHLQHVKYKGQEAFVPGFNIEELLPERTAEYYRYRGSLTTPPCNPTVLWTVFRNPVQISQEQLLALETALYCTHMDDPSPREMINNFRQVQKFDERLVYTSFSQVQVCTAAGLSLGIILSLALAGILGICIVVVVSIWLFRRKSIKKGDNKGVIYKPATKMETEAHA
Description for Carbonic anhydrase 12: Inhibition of human carbonic anhydrase 12 by stopped flow CO2 assay

One may read the Ki as the dissociation constant of the complex between target and ligand, obtained from inhibition or displacement. The low end stands for tighter binding, the high end for weaker binding. In the case of `CCn1cc(S(N)(=O)=O)c2cc(NC(=O)c3cc(-c4ccccc4)nc4ccc(OC)cc34)ccc21`, the Ki at Carbonic anhydrase 12 was over 100 µM; at Carbonic anhydrase 9 it was 40.2 µM; on Carbonic anhydrase 2 it was over 100 µM; at Carbonic anhydrase 1, over 100 µM.
As to `COc1ccc(-c2cc(C(=O)Nc3ccc4c(c3)c(S(N)(=O)=O)cn4C)c3ccccc3n2)cc1OC`, the Ki on Carbonic anhydrase 12 is over 100 µM; on Carbonic anhydrase 9, 69.3 µM; on Carbonic anhydrase 2 it was over 100 µM; on Carbonic anhydrase 1, over 100 µM.
Take `COc1ccc2nc(-c3ccccc3C)cc(C(=O)Nc3ccc4c(c3)c(S(N)(=O)=O)cn4C)c2c1`: the Ki on Carbonic anhydrase 12 was over 100 µM; at Carbonic anhydrase 9, 16.3 µM; on Carbonic anhydrase 1 it was over 100 µM.
Regarding `Cn1cc(S(N)(=O)=O)c2cc(NC(=O)c3cc(-c4ccccc4)nc4ccccc34)ccc21`, the Ki at Carbonic anhydrase 12 is over 100 µM; at Carbonic anhydrase 9, 82.4 µM; on Carbonic anhydrase 2, over 100 µM; on Carbonic anhydrase 1, over 100 µM.
In the case of `COc1ccc2nc(-c3ccccc3OC)cc(C(=O)Nc3ccc4c(c3)c(S(N)(=O)=O)cn4C)c2c1`, the Ki on Carbonic anhydrase 12 was over 100 µM; on Carbonic anhydrase 9 it was 38.9 µM; on Carbonic anhydrase 2, over 100 µM; at Carbonic anhydrase 1, over 100 µM.
For the compound `Cn1cc(S(N)(=O)=O)c2cc(NC(=O)c3ccnc(O)c3)ccc21`, the figures for the Ki at Carbonic anhydrase 9, at Carbonic anhydrase 2 and at Carbonic anhydrase 1 were 9.05 µM, over 100 µM and over 100 µM, respectively.
On to `CCn1cc(S(N)(=O)=O)c2cc(NC(=O)c3ccncc3)ccc21`, for which the Ki on Carbonic anhydrase 12 is over 100 µM; on Carbonic anhydrase 9 it was 21.6 µM; at Carbonic anhydrase 2, over 100 µM; at Carbonic anhydrase 1, over 100 µM.
With `Cn1cc(S(N)(=O)=O)c2cc(NC(=O)c3ccnc(Cl)c3)ccc21`, the Ki at Carbonic anhydrase 9 was 5.93 µM; at Carbonic anhydrase 2 it was over 100 µM; on Carbonic anhydrase 1, over 100 µM.
For `Cn1cc(S(N)(=O)=O)c2cc(NC(=O)c3cc(Cl)nc(Br)c3)ccc21`, the Ki is over 100 µM at Carbonic anhydrase 12, 15.9 µM at Carbonic anhydrase 9, over 100 µM on Carbonic anhydrase 2 and over 100 µM on Carbonic anhydrase 1.
As for `Cn1cc(S(N)(=O)=O)c2cc(NC(=O)c3cc(-c4ccc(Cl)cc4)nc4ccccc34)ccc21`, the Ki on Carbonic anhydrase 12 was over 100 µM; at Carbonic anhydrase 9 it was 18.5 µM; at Carbonic anhydrase 1, over 100 µM.
Consider `CCn1cc(S(N)(=O)=O)c2cc(NC(=O)c3cc(-c4ccc(Cl)cc4Cl)nc4ccccc34)ccc21`, for which the values for the Ki at Carbonic anhydrase 9 and on Carbonic anhydrase 1 were 1.47 µM and over 100 µM, respectively.
Take `COc1ccc2nc(-c3ccccc3)cc(C(=O)Nc3ccc4c(c3)c(S(N)(=O)=O)cn4C)c2c1`: the Ki is over 100 µM at Carbonic anhydrase 12, 45 µM at Carbonic anhydrase 9, over 100 µM on Carbonic anhydrase 2 and over 100 µM on Carbonic anhydrase 1.
On to `CCn1cc(S(N)(=O)=O)c2cc(NC(=O)c3cc(-c4ccc(Cl)cc4)nc4ccccc34)ccc21`, for which the Ki is 5.56 µM on Carbonic anhydrase 9 and over 100 µM on Carbonic anhydrase 1.
The like results for `CCn1cc(S(N)(=O)=O)c2cc(NC(=O)c3cc(-c4ccccc4C)nc4ccc(OC)cc34)ccc21` were, in that order, 8.65 µM and over 100 µM.
In the same order, the values of `CCn1cc(S(N)(=O)=O)c2cc(NC(=O)c3cc(Cl)nc(Br)c3)ccc21` are 8.78 µM and over 100 µM.
On to `CCn1cc(S(N)(=O)=O)c2cc(NC(=O)c3cc(-c4ccccc4)nc4ccccc34)ccc21`, for which the Ki on Carbonic anhydrase 12, at Carbonic anhydrase 9, on Carbonic anhydrase 2 and on Carbonic anhydrase 1 was over 100 µM throughout.
For `CCn1cc(S(N)(=O)=O)c2cc(NC(=O)c3ccnc(O)c3)ccc21`, the Ki is 5.33 µM on Carbonic anhydrase 9, over 100 µM on Carbonic anhydrase 2 and over 100 µM at Carbonic anhydrase 1.
`CCn1cc(S(N)(=O)=O)c2cc(NC(=O)c3cc(-c4ccccc4Cl)nc4ccccc34)ccc21`: the values for the Ki on Carbonic anhydrase 9 and at Carbonic anhydrase 1 were 1.57 µM and over 100 µM, respectively.
Turning to `CCn1cc(S(N)(=O)=O)c2cc(NC(=O)c3cc(-c4ccc5c(c4)OCO5)nc4ccccc34)ccc21`, the Ki was 7.51 µM on Carbonic anhydrase 9 and over 100 µM at Carbonic anhydrase 1.
The like results for `CCn1cc(S(N)(=O)=O)c2cc(NC(=O)c3ccnc(Br)c3)ccc21` were, in that order, 8.21 µM and over 100 µM.
For the compound `CCn1cc(S(N)(=O)=O)c2cc(NC(=O)c3cc(-c4cc(Cl)cc(Cl)c4)nc4ccc(OC)cc34)ccc21`, the results for the Ki at Carbonic anhydrase 9 and on Carbonic anhydrase 1 were 4.23 µM and over 100 µM, respectively.
Consider `Cn1cc(S(N)(=O)=O)c2cc(NC(=O)c3ccnc(Br)c3)ccc21`, for which the Ki is 8.16 µM at Carbonic anhydrase 9, over 100 µM at Carbonic anhydrase 2 and over 100 µM at Carbonic anhydrase 1.
In the case of `Cn1cc(S(N)(=O)=O)c2cc(NC(=O)c3ccnc(N)c3)ccc21`, the Ki on Carbonic anhydrase 12 was over 100 µM; at Carbonic anhydrase 9 it was 34.6 µM; at Carbonic anhydrase 2 it was over 100 µM; on Carbonic anhydrase 1, over 100 µM.
In the case of `CCn1cc(S(N)(=O)=O)c2cc(NC(=O)c3cc(-c4ccccc4OC)nc4ccc(OC)cc34)ccc21`, the Ki is over 100 µM at Carbonic anhydrase 12, 26.7 µM on Carbonic anhydrase 9, over 100 µM at Carbonic anhydrase 2 and over 100 µM on Carbonic anhydrase 1.
Consider `CCn1cc(S(N)(=O)=O)c2cc(NC(=O)c3ccnc(Cl)c3)ccc21`, for which the results for the Ki at Carbonic anhydrase 9 and at Carbonic anhydrase 1 were 5.93 µM and over 100 µM, respectively.
Turning to `CCn1cc(S(N)(=O)=O)c2cc(NC(=O)c3ccnc(N)c3)ccc21`, the Ki is over 100 µM on Carbonic anhydrase 12, 19.8 µM at Carbonic anhydrase 9, over 100 µM on Carbonic anhydrase 2 and over 100 µM at Carbonic anhydrase 1.
For the compound `CCn1cc(S(N)(=O)=O)c2cc(NC(=O)c3cc(-c4ccc(OC)c(OC)c4)nc4ccccc34)ccc21`, the Ki on Carbonic anhydrase 12 was over 100 µM; at Carbonic anhydrase 9, 35.8 µM; at Carbonic anhydrase 2, over 100 µM; at Carbonic anhydrase 1, over 100 µM.
With `CCn1cc(S(N)(=O)=O)c2cc(NC(=O)c3cc(-c4ccc(OC)cc4OC)nc4ccc(OC)cc34)ccc21`, the values for the Ki at Carbonic anhydrase 12, at Carbonic anhydrase 9 and at Carbonic anhydrase 1 were over 100 µM, 59.5 µM and over 100 µM, respectively.
